Marks after values point to notes of the source that are not given here.
Key:
Type in all cases: in vivo, human
[1] = Phase 2/3 104-week placebo-controlled study of lanabecestat in early Alzheimer's Disease: effect on weight; settings: for Weight decrease ≥ 7%, (%): placebo 12.7; for mean weight change: completers at week 104, placebo 0.0 kg
From the text: A Phase 2/3, multicenter, randomized, 104-week, double-blind, placebo-controlled, global study of lanabecestat in patients with early Alzheimer's Disease (AD), defined as the continuum of patients with mild cognitive impairment (MCI) due to AD and patients diagnosed with mild AD dementia.
Lanabecestat, i.e., the camsylate salt of (1r,1′R,4R)-4-methoxy-5″-methyl-6′-[5-(prop-1-yn-1-yl)pyridin-3-yl]-3′H-dispiro[cyclohexane-1,2′-indene-1′,2″-imidazol]-4″-amine
was provided orally once daily for 104 weeks at 20 mg or 50 mg and compared to the results for once daily administration of placebo.
(§1) The key inclusion criteria for the study were as follows: • Population aged 55 to 85 years old; • Mild AD: meet National Institute on Aging and the Alzheimer's Association (NIA-AA) criteria with a Clinical Dementia Rating Scale-Global Score (CDR-GS) of 0.5 or 1; • MCI: meet NIA-AA criteria with a CDR-GS of 0.5; • CDR memory box score ≥0.5; • Mini-Mental State Examination (MMSE)≥20; • Repeatable Battery for the Assessment of Neuropsychological Status Delayed Memory Index (RBANS DMI)≤85; • Study partner; • Amyloid positive • Cerebrospinal fluid; or • Florbetapir amyloid Positron Emission Tomography (PET); or • Historical amyloid PET.
(§2) The key exclusion criteria for the study were as follows: • Unstable medical conditions or medications; • Magnetic Resonance Imaging (MRI): >5 microhemorrhages, significant cerebrovascular pathology, or other pathologies; • QT interval adjusted for heart rate using the Fridericia formula (QTcF) >470 ms; • History of vitiligo and/or current evidence of post-inflammatory hypo-pigmentation or exposure to depigmenting agents.
Comparing completers at week 104, the mean weight change was for 0.0 kg for placebo (n=202), −0.8 kg for lanabecestat 20 mg (n=187), and −1.9 kg for lanabecestat 50 mg (n=178). The overall p-value and pairwise p-value compared to placebo was ≤0.05 (nominal p-value, not adjusted for multiplicity).

[2] = Phase 3 study of lanabecestat in mild AD dementia, 78-week placebo-controlled period: effect on weight; settings: for Weight decrease ≥ 7%, (%): placebo 6.3; for mean weight change: completers at week 78, placebo −0.2 kg
Protocol: A Phase 3, multicenter, randomized, double-blind, global study of lanabecestat in patients with mild AD dementia that included a 78-week placebo-controlled period, for which results are provided below.
Lanabecestat was provided orally once daily for 78 weeks at 20 mg or 50 mg and compared to the results for once daily administration of placebo.
as §1, with “years;” for “years old;”, “1,” for “1; • MCI: meet NIA-AA criteria”, “with” for “with a CDR-GS of 0.5; • CDR”, “(MMSE) score 20-26;” for “(MMSE)≥20; • Repeatable Battery for the Assessment of Neuropsychological Status Delayed Memory Index (RBANS DMI)≤85;”
as §2, with “were:” for “were as follows:”, “resonance imaging” for “Resonance Imaging”, “hypo-pigmentation.” for “hypo-pigmentation or exposure to depigmenting agents.”
Comparing completers at week 78, the mean weight change was −0.2 kg for placebo (n=24), −1.4 kg for lanabecestat 20 mg (n=27), and −2.9 kg for lanabecestat 50 mg (n=20). The overall p-value and pairwise p-value compared to placebo was ≤0.05 (nominal p-value, not adjusted for multiplicity).

[3] = Combined analysis of the two studies of Examples 1 and 2: weight change from baseline and weight decrease over time; settings: for mean (SD) kg change from baseline: 52 weeks
Protocol: A further analysis of the subjects in the two studies described in Examples 1 and 2 above was performed, for which results are provided below.
FIGS. 1-3 show weight change from baseline over the course of the 104 week studies. […] At 52 weeks, the mean (SD) kg change from baseline in the Lanabecestat 50 mg group versus placebo was −1.5 kg (4.4) vs +0.1 kg (3.4).
At 52 weeks, the mean (SD) kg change from baseline in the Lanabecestat 50 mg group versus placebo was −0.65 kg (3.4) vs +0.3 kg (3.3).
Table 10 provides data for the weight decrease over time for the population with a baseline BMI>25 kg/m^2 versus the overall population, showing that there is a greater percent decrease in weight in the higher BMI group versus the overall population.

[4] = week 26, all patients, L20 (20 mg), N=1080
[5] = week 26, all patients, L50 (50 mg), N=1047
[6] = week 26, patients with baseline BMI > 25, L20 (20 mg), N=532
[7] = week 26, patients with baseline BMI > 25, L50 (50 mg), N=494
[8] = week 52, all patients, L20 (20 mg), N=726
[9] = week 52, all patients, L50 (50 mg), N=716
[10] = week 52, patients with baseline BMI > 25, L20 (20 mg), N=348
[11] = week 52, patients with baseline BMI > 25, L50 (50 mg), N=348
[12] = week 78, all patients, L20 (20 mg), N=366
[13] = week 78, all patients, L50 (50 mg), N=347
[14] = week 78, patients with baseline BMI > 25, L20 (20 mg), N=170
[15] = week 78, patients with baseline BMI > 25, L50 (50 mg), N=161
[16] = week 104, all patients, L20 (20 mg), N=187
[17] = week 104, all patients, L50 (50 mg), N=178
[18] = week 104, patients with baseline BMI > 25, L20 (20 mg), N=89
[19] = week 104, patients with baseline BMI > 25, L50 (50 mg), N=77

SMILES: CC#Cc1cncc(-c2ccc3c(c2)[C@@]2(N=C(C)C(N)=N2)[C@]2(CC[C@H](OC)CC2)C3)c1 [Lanabecestat, (1r,1′R,4R)-4-methoxy-5″-methyl-6′-[5-(prop-1-yn-1-yl)pyridin-3-yl]-3′H-dispiro[cyclohexane-1,2′-indene-1′,2″-imidazol]-4″-amine]
- Weight decrease ≥ 7%, (%) ([1]; 20 mg, N=728): (21.2)* %
- Weight decrease ≥ 7%, (%) ([1]; 50 mg, N=723): (24.9)* %
- mean weight change ([1]; lanabecestat 20 mg once daily oral, n=187): -0.8 kg
- mean weight change ([1]; lanabecestat 50 mg once daily oral, n=178): -1.9 kg
- Weight decrease ≥ 7%, (%) ([2]; 20 mg, N=570): (9.5) %
- Weight decrease ≥ 7%, (%) ([2]; 50 mg, N=545): (14.5)* %
- mean weight change ([2]; lanabecestat 20 mg once daily oral, n=27): -1.4 kg
- mean weight change ([2]; lanabecestat 50 mg once daily oral, n=20): -2.9 kg
- weight loss of ≥5% and ≥10% versus placebo ([3]; 50 mg, at 2 years): statistically significant weight loss
- mean (SD) kg change from baseline ([3]; baseline BMI>25 kg/m^2, 50 mg, SD 5.2, placebo −0.4 kg (3.6)): -2.5 kg
- mean (SD) kg change from baseline ([3]; baseline BMI≤25 kg/m^2, 50 mg, SD 3.4, placebo +0.3 kg (3.3)): -0.65 kg
- mean (SD) kg change from baseline ([3]; overall population, 50 mg, SD 4.4, placebo +0.1 kg (3.4)): -1.5 kg
- Weight loss ≥5%, % of patients [3, 4]: (14%)***
- Weight loss ≥5%, n patients [3, 4]: 147
- Weight loss ≥10%, % of patients [3, 4]: 1%
- Weight loss ≥10%, n patients [3, 4]: 15
- Weight loss ≥15%, % of patients [3, 4]: 0.3%
- Weight loss ≥15%, n patients [3, 4]: 3
- Weight loss ≥5%, % of patients [3, 5]: (16%)***
- Weight loss ≥5%, n patients [3, 5]: 172
- Weight loss ≥10%, % of patients [3, 5]: (3%)**
- Weight loss ≥10%, n patients [3, 5]: 28
- Weight loss ≥15%, % of patients [3, 5]: 0.5%
- Weight loss ≥15%, n patients [3, 5]: 5
- Weight loss ≥5%, % of patients [3, 6]: (16%)***
- Weight loss ≥5%, n patients [3, 6]: 87
- Weight loss ≥10%, % of patients [3, 6]: 2%
- Weight loss ≥10%, n patients [3, 6]: 11
- Weight loss ≥15%, % of patients [3, 6]: 0.6%
- Weight loss ≥15%, n patients [3, 6]: 3
- Weight loss ≥5%, % of patients [3, 7]: (18%)***
- Weight loss ≥5%, n patients [3, 7]: 90
- Weight loss ≥10%, % of patients [3, 7]: 4%
- Weight loss ≥10%, n patients [3, 7]: 20
- Weight loss ≥15%, % of patients [3, 7]: 1%
- Weight loss ≥15%, n patients [3, 7]: 3
- Weight loss ≥5%, % of patients [3, 8]: (19%)***
- Weight loss ≥5%, n patients [3, 8]: 139
- Weight loss ≥10%, % of patients [3, 8]: 5%
- Weight loss ≥10%, n patients [3, 8]: 35
- Weight loss ≥15%, % of patients [3, 8]: 1%
- Weight loss ≥15%, n patients [3, 8]: 8
- Weight loss ≥5%, % of patients [3, 9]: (25%)***
- Weight loss ≥5%, n patients [3, 9]: 180
- Weight loss ≥10%, % of patients [3, 9]: (5%)**
- Weight loss ≥10%, n patients [3, 9]: 39
- Weight loss ≥15%, % of patients [3, 9]: 1%
- Weight loss ≥15%, n patients [3, 9]: 8
- Weight loss ≥5%, % of patients [3, 10]: (24%)***
- Weight loss ≥5%, n patients [3, 10]: 82
- Weight loss ≥10%, % of patients [3, 10]: 7%
- Weight loss ≥10%, n patients [3, 10]: 26
- Weight loss ≥15%, % of patients [3, 10]: 2%
- Weight loss ≥15%, n patients [3, 10]: 8
- Weight loss ≥5%, n patients [3, 11]: 104
- Weight loss ≥10%, % of patients [3, 11]: 7%
- Weight loss ≥10%, n patients [3, 11]: 26
- Weight loss ≥15%, % of patients [3, 11]: 2%
- Weight loss ≥15%, n patients [3, 11]: 6
- Weight loss ≥5%, % of patients [3, 12]: (23%)**
- Weight loss ≥5%, n patients [3, 12]: 85
- Weight loss ≥10%, % of patients [3, 12]: 7%
- Weight loss ≥10%, n patients [3, 12]: 26
- Weight loss ≥15%, % of patients [3, 12]: 2%
- Weight loss ≥15%, n patients [3, 12]: 9
- Weight loss ≥5%, % of patients [3, 13]: (31%)***
- Weight loss ≥5%, n patients [3, 13]: 107
- Weight loss ≥10%, % of patients [3, 13]: (10%)***
- Weight loss ≥10%, n patients [3, 13]: 36
- Weight loss ≥15%, % of patients [3, 13]: 2%
- Weight loss ≥15%, n patients [3, 13]: 7
- Weight loss ≥5%, % of patients [3, 14]: (31%)*
- Weight loss ≥5%, n patients [3, 14]: 52
- Weight loss ≥10%, % of patients [3, 14]: 10%
- Weight loss ≥10%, n patients [3, 14]: 17
- Weight loss ≥15%, % of patients [3, 14]: 5%
- Weight loss ≥15%, n patients [3, 14]: 9
- Weight loss ≥5%, % of patients [3, 15]: (35%)**
- Weight loss ≥5%, n patients [3, 15]: 57
- Weight loss ≥10%, % of patients [3, 15]: 12%
- Weight loss ≥10%, n patients [3, 15]: 20
- Weight loss ≥15%, % of patients [3, 15]: 3%
- Weight loss ≥15%, n patients [3, 15]: 5
- Weight loss ≥5%, % of patients [3, 16]: 26%
- Weight loss ≥5%, n patients [3, 16]: 48
- Weight loss ≥10%, % of patients [3, 16]: 9%
- Weight loss ≥10%, n patients [3, 16]: 16
- Weight loss ≥15%, % of patients [3, 16]: 2%
- Weight loss ≥15%, n patients [3, 16]: 4
- Weight loss ≥5%, % of patients [3, 17]: (38%)***
- Weight loss ≥5%, n patients [3, 17]: 67
- Weight loss ≥10%, % of patients [3, 17]: (17%)***
- Weight loss ≥10%, n patients [3, 17]: 31
- Weight loss ≥15%, % of patients [3, 17]: 3%
- Weight loss ≥15%, n patients [3, 17]: 6
- Weight loss ≥5%, % of patients [3, 18]: 30%
- Weight loss ≥5%, n patients [3, 18]: 27
- Weight loss ≥10%, % of patients [3, 18]: 15%
- Weight loss ≥10%, n patients [3, 18]: 13
- Weight loss ≥15%, % of patients [3, 18]: 4 (4%)
- Weight loss ≥15%, n patients [3, 18]: 4 (4%)
- Weight loss ≥5%, % of patients [3, 19]: (42%)**
- Weight loss ≥5%, n patients [3, 19]: 32
- Weight loss ≥10%, % of patients [3, 19]: 19%
- Weight loss ≥15%, % of patients [3, 19]: 4%
- Weight loss ≥15%, n patients [3, 19]: 3
